Values quoted from earlier work, collected in patent US20070105927A1, “Amorphous rizatriptan benzoate” (Glenmark Pharmaceuticals Limited, priority 2005, published 2007).

Experiments:
[1] = biological target: human cloned 5-HT1B receptors (Homo sapiens, UniProt P28222); conditions: human cloned receptor
[2] = biological target: human cloned 5-HT1D receptors (Homo sapiens, UniProt P28221); conditions: human cloned receptor
5-HT1A receptor subtype = biological target: T1, 5-HT1A receptor subtype (Homo sapiens, UniProt P08908)
T1 sequence (P08908 1-422): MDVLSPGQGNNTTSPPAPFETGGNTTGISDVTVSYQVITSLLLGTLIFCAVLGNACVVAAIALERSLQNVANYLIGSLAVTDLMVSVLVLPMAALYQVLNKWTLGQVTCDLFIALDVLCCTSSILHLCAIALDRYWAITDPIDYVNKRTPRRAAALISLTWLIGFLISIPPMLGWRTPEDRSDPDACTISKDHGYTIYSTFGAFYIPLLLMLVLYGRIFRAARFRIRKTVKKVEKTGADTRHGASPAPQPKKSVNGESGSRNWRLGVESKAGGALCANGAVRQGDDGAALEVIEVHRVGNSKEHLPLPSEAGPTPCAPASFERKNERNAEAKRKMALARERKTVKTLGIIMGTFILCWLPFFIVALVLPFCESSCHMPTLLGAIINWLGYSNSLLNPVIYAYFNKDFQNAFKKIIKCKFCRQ

5-HTIE receptor subtype = 5-HTIE receptor subtype (Homo sapiens, UniProt P28566)
Sequence of 5-HTIE receptor subtype (P28566 whole entry): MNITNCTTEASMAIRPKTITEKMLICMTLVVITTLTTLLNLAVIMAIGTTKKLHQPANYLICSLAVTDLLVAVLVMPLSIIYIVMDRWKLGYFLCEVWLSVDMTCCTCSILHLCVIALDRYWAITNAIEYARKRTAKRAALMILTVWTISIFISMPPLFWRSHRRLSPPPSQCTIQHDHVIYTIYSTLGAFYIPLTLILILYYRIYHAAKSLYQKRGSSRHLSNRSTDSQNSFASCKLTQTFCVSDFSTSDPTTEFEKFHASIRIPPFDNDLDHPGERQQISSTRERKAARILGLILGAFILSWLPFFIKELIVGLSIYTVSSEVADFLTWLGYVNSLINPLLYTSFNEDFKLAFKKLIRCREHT

5-HTIF receptor subtype = biological target: T2, 5-HTIF receptor subtype (Homo sapiens, UniProt P30939)
T2 sequence (P30939 1-366): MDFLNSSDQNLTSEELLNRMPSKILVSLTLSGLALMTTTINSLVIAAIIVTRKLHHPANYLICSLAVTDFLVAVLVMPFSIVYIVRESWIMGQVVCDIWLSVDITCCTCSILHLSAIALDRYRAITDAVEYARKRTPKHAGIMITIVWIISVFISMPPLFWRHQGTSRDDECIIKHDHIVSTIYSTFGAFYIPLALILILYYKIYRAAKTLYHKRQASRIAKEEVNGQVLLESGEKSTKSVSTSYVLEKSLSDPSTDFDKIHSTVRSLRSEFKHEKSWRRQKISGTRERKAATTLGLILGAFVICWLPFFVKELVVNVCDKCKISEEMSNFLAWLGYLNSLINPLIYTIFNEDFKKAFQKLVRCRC

5-HT7 receptor = 5-HT7 receptor (Homo sapiens, UniProt P34969)
Sequence of 5-HT7 receptor (P34969 whole entry): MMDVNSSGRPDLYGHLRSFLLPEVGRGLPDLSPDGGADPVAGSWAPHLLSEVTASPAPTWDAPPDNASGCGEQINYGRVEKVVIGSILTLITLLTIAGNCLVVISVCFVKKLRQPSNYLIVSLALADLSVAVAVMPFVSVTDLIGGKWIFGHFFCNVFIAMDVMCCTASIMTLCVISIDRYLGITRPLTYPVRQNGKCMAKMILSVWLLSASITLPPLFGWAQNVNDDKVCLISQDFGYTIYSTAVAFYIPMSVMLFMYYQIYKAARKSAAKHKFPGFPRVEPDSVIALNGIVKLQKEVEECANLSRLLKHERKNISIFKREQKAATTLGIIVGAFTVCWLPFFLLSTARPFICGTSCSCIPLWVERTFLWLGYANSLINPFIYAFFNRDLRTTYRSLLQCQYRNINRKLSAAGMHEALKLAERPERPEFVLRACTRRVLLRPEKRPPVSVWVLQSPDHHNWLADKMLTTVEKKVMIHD

[3] = system: alpha-adrenergic receptors
[4] = system: beta-adrenergic receptors
[5] = in vivo

Sequence of human cloned 5-HT1B receptors (P28222 whole entry): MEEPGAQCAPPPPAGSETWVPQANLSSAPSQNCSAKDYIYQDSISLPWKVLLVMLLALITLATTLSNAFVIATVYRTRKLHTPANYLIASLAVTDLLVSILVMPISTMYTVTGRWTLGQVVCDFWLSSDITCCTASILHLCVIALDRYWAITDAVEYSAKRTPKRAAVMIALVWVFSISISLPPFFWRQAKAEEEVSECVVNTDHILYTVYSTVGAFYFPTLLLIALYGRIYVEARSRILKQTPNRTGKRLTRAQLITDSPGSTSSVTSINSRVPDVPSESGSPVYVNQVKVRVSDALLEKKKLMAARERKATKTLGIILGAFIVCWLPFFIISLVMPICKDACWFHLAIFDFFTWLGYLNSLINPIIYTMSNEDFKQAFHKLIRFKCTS
Sequence of human cloned 5-HT1D receptors (P28221 whole entry): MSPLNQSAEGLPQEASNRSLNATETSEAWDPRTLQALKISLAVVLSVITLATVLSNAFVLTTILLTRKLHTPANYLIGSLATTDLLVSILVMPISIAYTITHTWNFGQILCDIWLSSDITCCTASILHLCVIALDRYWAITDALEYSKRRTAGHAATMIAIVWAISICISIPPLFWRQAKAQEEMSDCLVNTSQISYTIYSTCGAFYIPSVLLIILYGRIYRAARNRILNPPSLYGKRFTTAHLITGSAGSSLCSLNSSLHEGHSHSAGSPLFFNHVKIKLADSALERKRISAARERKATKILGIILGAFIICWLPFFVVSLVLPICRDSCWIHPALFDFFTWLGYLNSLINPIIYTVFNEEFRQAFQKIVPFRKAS

SMILES	affinity for 5-HT1B receptors [1]	affinity for 5-HT1D receptors [2]	affinity for 5-HT1A receptor subtype (5-HT1A receptor subtype)	affinity for 5-HTIE receptor subtype (5-HTIE receptor subtype)	affinity for 5-HTIF receptor subtype (5-HTIF receptor subtype)	affinity for 5-HT7 receptor (5-HT7 receptor)	activity at 5-HT2 receptors (5-HT2 receptors)	activity at 5-HT3 receptors (5-HT3 receptors)	activity at alpha-adrenergic receptors [3]	activity at beta-adrenergic receptors [4]	activity at dopaminergic receptors (dopaminergic receptors)	activity at histaminergic receptors (histaminergic receptors)	activity at muscarinic receptors (muscarinic receptors)	activity at benzodiazepine receptors (benzodiazepine receptors)	bioavailability [5]
CN(C)CCc1c[nH]c2ccc(Cn3cncn3)cc12 [Rizatriptan]	high affinity	high affinity	weak affinity	weak affinity	weak affinity	weak affinity	no significant activity	no significant activity	no significant activity	no significant activity	no significant activity	no significant activity	no significant activity	no significant activity	
CO/N=C(\C(=O)N[C@@H]1C(=O)N2C(C(=O)OC(C)OC(C)=O)=C(COC(N)=O)CS[C@H]12)c1ccco1 (stereo partly drawn) [cefuroxime axietil]															much higher bioavailability than the crystalline forms
